Source: patent publication US20150030540A1 (Eli Lilly and Company, priority 2008, published 2015)

How the values were obtained:
tau = molecular target: T1, tau (Homo sapiens, UniProt P10636); assay: KD (tau) binding; settings: FIG. 2 legend, [18F] tracer; read-out: KD
T1 construct: Native forms of tau (various isoforms, hyperphosphorylated) and amyloid aggregates are present in brain sections and therefore preferred for compound testing
From the text: (§1) When injected intravenously into mice, the Carbazole based compounds; in particular T807, T805 and T794 have shown excellent brain uptake. These compounds also display high binding affinity to tau fibrils. […] In neuropathological staining, compounds of the present invention stained amyloid plaques and/or tau aggregates.
(§2) Furthermore, the selectivity can be evaluated in brains containing only Aβ plaques/no tau aggregates, Aβ plaques/and tau aggregates, and control brains. Unfortunately, there are no AD brains with only tau and no Aβ present. By testing radiolabeled tracers in these brain sections, one can more quantitative evaluate the relative binding strength (signal strength) and selectivity of various test compounds as they all contain the same radioactive tracer. For examples, if a test tracer binds only to tau, and not amyloid, it should show no signal in the Aβ plaques only brain sections. If a compound binds only to amyloid, it should show uptake in both types of brains. The difficulty of identifying and further quantifying selective compounds lies in the relative abundance of amyloid vs. tau, which is difficult to measure.

tau/Ab = assay: selectivity (tau/Ab); type: binding
From the text: as §2

[1] = GM Intensity (comp. with W372); type: binding; settings: compared with W372
[2] = background in normal brain; type: binding
From the text: as §2

tau/amyloid = assay: Tx/tau/amyloid correlation; type: binding
[3] = Brain uptake in rats and mice; type: in vivo
[4] = Brain uptake after intravenous injection into mice; type: in vivo; settings: injected intravenously into mice
From the text: as §1

human hepatocytes = assay: Metabolism in human hepatocytes; type: in vitro ADME
AchE = AchE (Homo sapiens, UniProt P22303); assay: AchE activity (IC50); type: biochemical
MAO-A = molecular target: T2, MAO-A (Homo sapiens, UniProt P21397); assay: MAO inhibition, MAO-A; type: biochemical
T2 sequence (P21397 1-527): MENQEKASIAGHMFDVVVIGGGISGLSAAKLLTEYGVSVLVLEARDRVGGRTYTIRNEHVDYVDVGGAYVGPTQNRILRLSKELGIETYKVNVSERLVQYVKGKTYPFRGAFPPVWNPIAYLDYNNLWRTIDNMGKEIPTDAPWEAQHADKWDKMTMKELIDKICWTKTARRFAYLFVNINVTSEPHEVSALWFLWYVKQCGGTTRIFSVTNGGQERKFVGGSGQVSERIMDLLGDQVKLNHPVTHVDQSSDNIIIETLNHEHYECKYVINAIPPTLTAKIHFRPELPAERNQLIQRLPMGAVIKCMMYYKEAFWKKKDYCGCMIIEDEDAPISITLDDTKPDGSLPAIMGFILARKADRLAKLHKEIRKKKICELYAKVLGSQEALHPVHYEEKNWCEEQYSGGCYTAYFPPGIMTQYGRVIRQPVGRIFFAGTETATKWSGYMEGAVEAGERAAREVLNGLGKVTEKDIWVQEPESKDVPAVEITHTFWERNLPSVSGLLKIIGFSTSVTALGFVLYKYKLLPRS

MAO-B = molecular target: T3, MAO-B (Homo sapiens, UniProt P27338); assay: MAO inhibition, MAO-B; type: biochemical
T3 sequence (P27338 1-520): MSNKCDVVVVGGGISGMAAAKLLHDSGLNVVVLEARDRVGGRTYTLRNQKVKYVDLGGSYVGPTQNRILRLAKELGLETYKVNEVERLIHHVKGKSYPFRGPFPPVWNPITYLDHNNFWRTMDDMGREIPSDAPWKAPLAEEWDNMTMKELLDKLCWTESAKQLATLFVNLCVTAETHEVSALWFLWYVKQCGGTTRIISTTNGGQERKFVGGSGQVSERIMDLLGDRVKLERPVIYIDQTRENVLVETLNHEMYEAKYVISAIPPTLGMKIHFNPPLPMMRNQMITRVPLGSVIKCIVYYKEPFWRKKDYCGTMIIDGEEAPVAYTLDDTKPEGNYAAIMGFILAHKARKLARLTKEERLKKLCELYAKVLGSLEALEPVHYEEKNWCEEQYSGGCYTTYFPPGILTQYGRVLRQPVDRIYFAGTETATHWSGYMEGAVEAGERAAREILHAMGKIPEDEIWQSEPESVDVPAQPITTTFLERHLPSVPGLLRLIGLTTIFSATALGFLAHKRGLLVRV

Norepinephrine transp. = Norepinephrine transp. (Homo sapiens, UniProt P23975); assay: CNS selectivity panel: Norepinephrine transp.; type: binding; settings: 1 uM
Dopamine transp. = Dopamine transp. (Homo sapiens, UniProt Q01959); assay: CNS selectivity panel: Dopamine transp.; type: binding; settings: 1 uM
Glutamate, NMDA = assay: CNS selectivity panel: Glutamate, NMDA; type: binding; settings: 1 uM
Monoamine transp. = assay: CNS selectivity panel: Monoamine transp.; type: binding; settings: 1 uM
Serotonin 5-HT2c = molecular target: T4, Serotonin 5-HT2c (Homo sapiens, UniProt P28335); assay: CNS selectivity panel: Serotonin 5-HT2c; type: binding; settings: 1 uM
T4 sequence (P28335 33-458): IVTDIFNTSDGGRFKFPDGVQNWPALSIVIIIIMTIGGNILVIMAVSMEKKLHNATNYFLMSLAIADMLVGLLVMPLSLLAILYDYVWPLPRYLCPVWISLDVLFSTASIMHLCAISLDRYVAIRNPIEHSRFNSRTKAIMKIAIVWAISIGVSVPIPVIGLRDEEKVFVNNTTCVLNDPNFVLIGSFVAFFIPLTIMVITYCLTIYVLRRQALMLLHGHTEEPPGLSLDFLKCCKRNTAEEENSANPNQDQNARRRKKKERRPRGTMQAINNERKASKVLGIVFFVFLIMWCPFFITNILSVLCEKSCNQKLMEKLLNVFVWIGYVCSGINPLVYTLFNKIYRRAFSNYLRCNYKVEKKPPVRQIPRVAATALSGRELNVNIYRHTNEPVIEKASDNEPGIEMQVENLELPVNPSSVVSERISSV

Sequence of Dopamine transp. (Q01959 whole entry): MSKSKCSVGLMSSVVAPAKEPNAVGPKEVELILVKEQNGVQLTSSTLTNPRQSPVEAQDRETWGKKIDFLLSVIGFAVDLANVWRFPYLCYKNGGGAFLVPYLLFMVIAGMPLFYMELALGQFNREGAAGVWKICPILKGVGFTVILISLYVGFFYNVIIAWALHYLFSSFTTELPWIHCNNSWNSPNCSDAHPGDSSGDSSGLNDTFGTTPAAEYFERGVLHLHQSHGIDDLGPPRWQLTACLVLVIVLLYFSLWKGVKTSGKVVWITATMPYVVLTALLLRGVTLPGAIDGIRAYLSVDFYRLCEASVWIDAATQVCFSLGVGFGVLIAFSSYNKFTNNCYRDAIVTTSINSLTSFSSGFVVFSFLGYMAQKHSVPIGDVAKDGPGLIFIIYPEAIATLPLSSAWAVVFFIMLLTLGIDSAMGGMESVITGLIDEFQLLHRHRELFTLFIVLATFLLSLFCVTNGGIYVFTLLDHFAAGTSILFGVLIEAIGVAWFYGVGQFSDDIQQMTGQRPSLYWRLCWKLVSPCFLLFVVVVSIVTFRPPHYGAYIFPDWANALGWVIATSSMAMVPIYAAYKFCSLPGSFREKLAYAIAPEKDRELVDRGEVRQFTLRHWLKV
Sequence of Norepinephrine transp. (P23975 whole entry): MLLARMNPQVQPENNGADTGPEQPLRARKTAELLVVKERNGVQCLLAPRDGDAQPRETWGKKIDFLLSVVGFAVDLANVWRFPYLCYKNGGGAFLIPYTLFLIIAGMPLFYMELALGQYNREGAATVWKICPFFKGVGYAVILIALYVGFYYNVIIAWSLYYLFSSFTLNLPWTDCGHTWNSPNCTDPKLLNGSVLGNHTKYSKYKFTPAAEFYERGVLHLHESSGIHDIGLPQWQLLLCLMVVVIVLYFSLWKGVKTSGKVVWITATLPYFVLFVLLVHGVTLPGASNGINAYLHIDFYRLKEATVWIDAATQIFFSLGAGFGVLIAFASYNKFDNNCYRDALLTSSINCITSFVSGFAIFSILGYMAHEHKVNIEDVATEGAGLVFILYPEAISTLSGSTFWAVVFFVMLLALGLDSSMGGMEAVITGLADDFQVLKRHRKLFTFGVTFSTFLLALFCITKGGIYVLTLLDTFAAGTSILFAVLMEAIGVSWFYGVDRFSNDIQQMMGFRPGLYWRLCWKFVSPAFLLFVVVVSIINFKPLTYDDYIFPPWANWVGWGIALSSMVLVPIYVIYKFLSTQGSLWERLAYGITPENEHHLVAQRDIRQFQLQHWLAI
Sequence of AchE (P22303 32-614): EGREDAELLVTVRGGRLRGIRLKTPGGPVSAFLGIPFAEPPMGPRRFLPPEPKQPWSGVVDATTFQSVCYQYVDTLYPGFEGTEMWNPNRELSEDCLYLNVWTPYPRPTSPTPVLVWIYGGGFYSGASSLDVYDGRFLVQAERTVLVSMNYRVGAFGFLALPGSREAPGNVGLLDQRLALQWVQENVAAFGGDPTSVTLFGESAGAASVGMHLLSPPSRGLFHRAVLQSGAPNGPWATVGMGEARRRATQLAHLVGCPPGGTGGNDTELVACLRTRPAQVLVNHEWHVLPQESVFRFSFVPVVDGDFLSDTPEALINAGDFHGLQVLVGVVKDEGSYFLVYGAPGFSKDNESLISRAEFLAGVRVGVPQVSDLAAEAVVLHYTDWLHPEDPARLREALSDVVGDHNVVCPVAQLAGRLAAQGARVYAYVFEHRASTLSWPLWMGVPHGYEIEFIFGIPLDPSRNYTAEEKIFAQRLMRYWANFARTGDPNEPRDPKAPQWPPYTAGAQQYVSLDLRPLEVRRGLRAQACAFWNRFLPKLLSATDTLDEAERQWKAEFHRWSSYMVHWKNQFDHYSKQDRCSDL
T1 sequence (P10636 623-758 limits assumed): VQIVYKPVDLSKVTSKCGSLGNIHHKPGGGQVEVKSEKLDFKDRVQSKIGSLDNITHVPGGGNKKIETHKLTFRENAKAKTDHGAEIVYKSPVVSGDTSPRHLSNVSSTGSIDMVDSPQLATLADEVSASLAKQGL

Q: Which Kd (tau) does the source give for `FCCCc1ccc2c(c1)[nH]c1ccncc12` [T794, 7-(3-Fluoropropyl)-5H-pyrido[4,3-b]indole] here?
A: 30 nM

Q: What about the “selectivity (tau/Ab)” value (tau/Ab) of the same molecule?
A: 17x

Q: And the “GM Intensity (comp. with W372)” value [1]?
A: 14%

Q: And the “background (normal brain 32566) PSL/mm2” value [2]?
A: 97 PSL/mm2

Q: What about the Tx/tau/amyloid correlation (tau/amyloid) of the same molecule?
A: yes

Q: What about the Brain uptake [3] of the same molecule?
A: yes (4 rats, 4 mice)

Q: And the Brain uptake [4]?
A: excellent

Q: What about the “human hepatocytes (metabolic stability)” value (human hepatocytes) of the same molecule?
A: stable

Q: And the IC50 (AchE)?
A: 5000 nM

Q: And the inhibition at 1 µM (MAO-A)?
A: 19%

Q: What about the inhibition at 1 µM (MAO-B) of the same molecule?
A: 0%

Q: What about the “CNS selectivity panel: Norepinephrine transp.” value (Norepinephrine transp.) of the same molecule?
A: transp.(49%)

Q: And the “CNS selectivity panel: Dopamine transp.” value (Dopamine transp.)?
A: transp.(34%)

Q: And the “CNS selectivity panel: Glutamate, NMDA” value (Glutamate, NMDA)?
A: (44%) Monoamine

Q: And the “CNS selectivity panel: Monoamine transp.” value (Monoamine transp.)?
A: transp. (41%)

Q: What about the “CNS selectivity panel: Serotonin 5-HT2c” value (Serotonin 5-HT2c) of the same molecule?
A: (33%)
